In ChEMBL document CHEMBL3045535, “Evaluation of lufenuron as a chemosterilant against fruit flies of the genus Anastrepha (Diptera: Tephritidae)” (2010):
The source made the active and inactive calls. The calls are words filed in the database; no cut-off is given here.

Legend:
[1] = tested on: Anastrepha striata; assay: Reduction of fertility in 7 days old adult of Anastrepha striata assessed as reduction of egg hatching at 30 mg/g treated with diet measured after 7 days oviposition; type: functional; parameters: scale not given: the % may be the effect or the level left
[2] = tested on: Anastrepha striata; assay: Reduction of fertility in 7 days old adult of Anastrepha striata assessed as reduction of egg hatching at 30 mg/g treated with diet measured after 3 days oviposition; type: functional; parameters: scale not given: the % may be the effect or the level left
[3] = tested on: Anastrepha striata; assay: Reduction of fertility in 7 days old adult of Anastrepha striata assessed as reduction of egg hatching at 30 mg/g treated with diet measured after 1 day oviposition; type: functional; parameters: scale not given: the % may be the effect or the level left
[4] = tested on: Anastrepha ludens; assay: Reduction of fertility in 7 days old adult of Anastrepha ludens assessed as reduction of egg hatching at 10 mg/g treated with diet measured after 11 days oviposition; type: functional; parameters: scale not given: the % may be the effect or the level left
[5] = tested on: Anastrepha ludens; assay: Reduction of fertility in 7 days old adult of Anastrepha ludens assessed as reduction of egg hatching at 10 mg/g treated with diet measured after 1 day oviposition; type: functional; parameters: scale not given: the % may be the effect or the level left
[6] = tested on: Anastrepha ludens; assay: Reduction of fertility in 7 days old adult of Anastrepha ludens assessed as reduction of egg hatching at 5 mg/g treated with diet measured after 11 days oviposition; type: functional; parameters: scale not given: the % may be the effect or the level left
[7] = tested on: Anastrepha ludens; assay: Reduction of fertility in 7 days old adult of Anastrepha ludens assessed as reduction of egg hatching at 5 mg/g treated with diet measured after 9 days oviposition; type: functional; parameters: scale not given: the % may be the effect or the level left
[8] = tested on: Anastrepha ludens; assay: Reduction of fertility in 7 days old adult of Anastrepha ludens assessed as reduction of egg hatching at 1 mg/g treated with diet measured after 11 days oviposition; type: functional; parameters: scale not given: the % may be the effect or the level left
[9] = tested on: Anastrepha ludens; assay: Reduction of fertility in 7 days old adult of Anastrepha ludens assessed as reduction of egg hatching at 0.1 mg/g treated with diet measured after 1 day oviposition; type: functional; parameters: scale not given: the % may be the effect or the level left
[10] = tested on: Anastrepha obliqua; assay: Effect on fecundity in 7 days old adult of Anastrepha obliqua at 0.1 to 30 mg/g treated with diet after 24 hr; type: functional, organism-based
[11] = tested on: Anastrepha ludens; assay: Effect on fecundity in 7 days old adult of Anastrepha ludens at 0.1 to 30 mg/g treated with diet after 24 hr; type: functional, organism-based
[12] = tested on: Anastrepha obliqua; assay: Reduction of fertility in 7 days old adult of Anastrepha obliqua assessed as reduction of egg hatching at 5 mg/g treated with diet measured after 3 days oviposition; type: functional; parameters: scale not given: the % may be the effect or the level left
[13] = tested on: Anastrepha obliqua; assay: Reduction of fertility in 7 days old adult of Anastrepha obliqua assessed as reduction of egg hatching at 1 mg/g treated with diet measured after 7 days oviposition; type: functional; parameters: scale not given: the % may be the effect or the level left
[14] = tested on: Anastrepha ludens; assay: Reduction of fertility in 7 days old adult of Anastrepha ludens assessed as reduction of egg hatching at 0.5 mg/g treated with diet measured after 11 days oviposition; type: functional; parameters: scale not given: the % may be the effect or the level left
[15] = tested on: Anastrepha ludens; assay: Reduction of fertility in 7 days old adult of Anastrepha ludens assessed as reduction of egg hatching at 0.5 mg/g treated with diet measured after 5 days oviposition; type: functional; parameters: scale not given: the % may be the effect or the level left
[16] = tested on: Anastrepha serpentina; assay: Reduction of fertility in 7 days old adult of Anastrepha serpentina assessed as reduction of egg hatching at 0.5 mg/g treated with diet measured after 1 day oviposition; type: functional; parameters: scale not given: the % may be the effect or the level left
[17] = tested on: Anastrepha serpentina; assay: Reduction of fertility in 7 days old adult of Anastrepha serpentina assessed as reduction of egg hatching at 0.1 mg/g treated with diet measured after 11 days oviposition; type: functional; parameters: scale not given: the % may be the effect or the level left
[18] = tested on: Anastrepha serpentina; assay: Reduction of fertility in 7 days old adult of Anastrepha serpentina assessed as reduction of egg hatching at 0.1 mg/g treated with diet measured after 3 days oviposition; type: functional; parameters: scale not given: the % may be the effect or the level left
[19] = tested on: Anastrepha serpentina; assay: Reduction of fertility in 7 days old adult of Anastrepha serpentina assessed as reduction of egg hatching at 0.1 mg/g treated with diet measured after 1 day oviposition; type: functional; parameters: scale not given: the % may be the effect or the level left
[20] = tested on: Anastrepha obliqua; assay: Reduction of fertility in 7 days old adult of Anastrepha obliqua assessed as reduction of egg hatching at 30 mg/g treated with diet measured after 9 days oviposition; type: functional; parameters: scale not given: the % may be the effect or the level left
[21] = tested on: Anastrepha obliqua; assay: Reduction of fertility in 7 days old adult of Anastrepha obliqua assessed as reduction of egg hatching at 30 mg/g treated with diet measured after 7 days oviposition; type: functional; parameters: scale not given: the % may be the effect or the level left
[22] = tested on: Anastrepha obliqua; assay: Reduction of fertility in 7 days old adult of Anastrepha obliqua assessed as reduction of egg hatching at 0.1 mg/g treated with diet measured after 11 days oviposition; type: functional; parameters: scale not given: the % may be the effect or the level left
[23] = tested on: Anastrepha obliqua; assay: Reduction of fertility in 7 days old adult of Anastrepha obliqua assessed as reduction of egg hatching at 0.1 mg/g treated with diet measured after 5 days oviposition; type: functional; parameters: scale not given: the % may be the effect or the level left
[24] = tested on: Anastrepha ludens; assay: Reduction of fertility in 7 days old adult of Anastrepha ludens assessed as reduction of egg hatching at 30 mg/g treated with diet measured after 11 days oviposition; type: functional; parameters: scale not given: the % may be the effect or the level left
[25] = tested on: Anastrepha ludens; assay: Reduction of fertility in 7 days old adult of Anastrepha ludens assessed as reduction of egg hatching at 30 mg/g treated with diet measured after 3 days oviposition; type: functional; parameters: scale not given: the % may be the effect or the level left
[26] = tested on: Anastrepha striata; assay: Reduction of fertility in 7 days old adult of Anastrepha striata assessed as reduction of egg hatching at 1 mg/g treated with diet measured after 9 days oviposition; type: functional; parameters: scale not given: the % may be the effect or the level left
[27] = tested on: Anastrepha striata; assay: Reduction of fertility in 7 days old adult of Anastrepha striata assessed as reduction of egg hatching at 1 mg/g treated with diet measured after 5 days oviposition; type: functional; parameters: scale not given: the % may be the effect or the level left
[28] = tested on: Anastrepha striata; assay: Reduction of fertility in 7 days old adult of Anastrepha striata assessed as reduction of egg hatching at 1 mg/g treated with diet measured after 3 days oviposition; type: functional; parameters: scale not given: the % may be the effect or the level left
[29] = tested on: Anastrepha striata; assay: Reduction of fertility in 7 days old adult of Anastrepha striata assessed as reduction of egg hatching at 0.1 mg/g treated with diet measured after 11 days oviposition; type: functional; parameters: scale not given: the % may be the effect or the level left
[30] = tested on: Anastrepha serpentina; assay: Reduction of fertility in 7 days old adult of Anastrepha serpentina assessed as reduction of egg hatching at 30 mg/g treated with diet measured after 11 days oviposition; type: functional; parameters: scale not given: the % may be the effect or the level left
[31] = tested on: Anastrepha serpentina; assay: Reduction of fertility in 7 days old adult of Anastrepha serpentina assessed as reduction of egg hatching at 30 mg/g treated with diet measured after 5 days oviposition; type: functional; parameters: scale not given: the % may be the effect or the level left
[32] = tested on: Anastrepha serpentina; assay: Reduction of fertility in 7 days old adult of Anastrepha serpentina assessed as reduction of egg hatching at 10 mg/g treated with diet measured after 3 days oviposition; type: functional; parameters: scale not given: the % may be the effect or the level left
[33] = tested on: Anastrepha serpentina; assay: Reduction of fertility in 7 days old adult of Anastrepha serpentina assessed as reduction of egg hatching at 5 mg/g treated with diet measured after 5 days oviposition; type: functional; parameters: scale not given: the % may be the effect or the level left
[34] = tested on: Anastrepha serpentina; assay: Reduction of fertility in 7 days old adult of Anastrepha serpentina assessed as reduction of egg hatching at 5 mg/g treated with diet measured after 1 day oviposition; type: functional; parameters: scale not given: the % may be the effect or the level left
[35] = tested on: Anastrepha serpentina; assay: Reduction of fertility in 7 days old adult of Anastrepha serpentina assessed as reduction of egg hatching at 1 mg/g treated with diet measured after 11 days oviposition; type: functional; parameters: scale not given: the % may be the effect or the level left
[36] = tested on: Anastrepha serpentina; assay: Reduction of fertility in 7 days old adult of Anastrepha serpentina assessed as reduction of egg hatching at 1 mg/g treated with diet measured after 1 day oviposition; type: functional; parameters: scale not given: the % may be the effect or the level left
[37] = tested on: Anastrepha serpentina; assay: Reduction of fertility in 7 days old adult of Anastrepha serpentina assessed as reduction of egg hatching at 0.5 mg/g treated with diet measured after 9 days oviposition; type: functional; parameters: scale not given: the % may be the effect or the level left
[38] = tested on: Anastrepha striata; assay: Reduction of fertility in 7 days old adult of Anastrepha striata assessed as reduction of egg hatching at 5 mg/g treated with diet measured after 9 days oviposition; type: functional; parameters: scale not given: the % may be the effect or the level left
[39] = tested on: Anastrepha ludens; assay: Effect on fertility in 7 days old adult male of Anastrepha ludens at 30 mg/g treated with diet after 24 hr in presence of untreated adult female of Anastrepha ludens; type: functional, organism-based
[40] = tested on: Anastrepha ludens; assay: Effect on fertility in 7 days old adult female of Anastrepha ludens at 30 mg/g treated with diet after 24 hr in presence of untreated adult male of Anastrepha ludens; type: functional, organism-based
[41] = tested on: Anastrepha obliqua; assay: Effect on fecundity in 7 days old adult female of Anastrepha obliqua at 30 mg/g treated with diet after 24 hr in presence of untreated adult male of Anastrepha obliqua; type: functional, organism-based

## O=C(NC(=O)c1c(F)cccc1F)Nc1cc(Cl)c(OC(F)(F)C(F)C(F)(F)F)cc1Cl (racemic) [LUFENURON]
[1]
  Activity: 0.7%
[2]
  Activity: 8.7%
[3]
  Activity: 8.7%
[4]
  Activity: 16.7%
[5]
  Activity: 6%
[6]
  Activity: 32.7%
[7]
  Activity: 30.7%
[8]
  Activity: 40%
[9]
  Activity: 26.7%
[10]
  Activity: inactive
[11]
  Activity: inactive
[12]
  Activity: 2.7%
[13]
  Activity: 0.7%
[14]
  Activity: 26.7%
[15]
  Activity: 10.7%
[16]
  Activity: 88.3%
[17]
  Activity: 80.3%
[18]
  Activity: 95%
[19]
  Activity: 98.9%
[20]
  Activity: 1.3%
[21]
  Activity: 0.7%
[22]
  Activity: 10.7%
[23]
  Activity: 8.7%
[24]
  Activity: 15.3%
[25]
  Activity: 2.7%
[26]
  Activity: 4.7%
[27]
  Activity: 4.5%
[28]
  Activity: 8%
[29]
  Activity: 72.7%
[30]
  Activity: 78%
[31]
  Activity: 78.4%
[32]
  Activity: 34.4%
[33]
  Activity: 83.1%
[34]
  Activity: 34.8%
[35]
  Activity: 91.2%
[36]
  Activity: 42.7%
[37]
  Activity: 88%
[38]
  Activity: 8.7%
[39]
  Activity: inactive
[40]
  Activity: inactive
[41]
  Activity: inactive
